Assay results reported in PubChem BioAssay AID248 (DTP/NCI, 2004).
Values joined by “and” are separate entries in the source; they are usually repeats but may differ in a detail not shown here. Equal values may be shown once. Toxic doses and inconclusive results are not listed. Cut-off read from the data, not from the text of the source: active = T/C of 150% or more; inactive = T/C below 125%.

System: L1210 leukemia ip in BDF1 mice, survival T/C
Test: NCI In Vivo Anticancer Drug Screen. Data for tumor model L1210 Leukemia (intraperitoneal) in B6D2F1 (BDF1) mice
Conditions: endpoint: mean survival time, higher = longer survival
Method in brief: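 In this screen, tumor-bearing mice given compound are compared to those given vehicle, and their survival values are reported as a treated-to-control quotient.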

[1] = dose: 100.0 mg/kg/injection, schedule: Q01DX009 (ip), vehicle: saline with Tween-80
[2] = dose: 200.0 mg/kg/injection, schedule: Q01DX009 (ip), vehicle: saline with Tween-80
[3] = dose: 400.0 mg/kg/injection, schedule: Q01DX009 (ip), vehicle: saline with Tween-80
[4] = dose: 100.0 mg/kg/injection, schedule: Q01DX009 (ip), vehicle: Klucel (hydroxypropylcellulose) (HPC)
[5] = dose: 200.0 mg/kg/injection, schedule: Q01DX009 (ip), vehicle: Klucel (hydroxypropylcellulose) (HPC)
[6] = dose: 400.0 mg/kg/injection, schedule: Q01DX009 (ip), vehicle: Klucel (hydroxypropylcellulose) (HPC)
[7] = dose: 100.0 mg/kg/injection, schedule: Q01DX001 (ip), vehicle: saline
[8] = dose: 400.0 mg/kg/injection, schedule: Q01DX001 (ip), vehicle: saline
[9] = dose: 100.0 mg/kg/injection, schedule: Q04DX003 (ip), vehicle: Klucel (hydroxypropylcellulose) (HPC)
[10] = dose: 400.0 mg/kg/injection, schedule: Q04DX003 (ip), vehicle: Klucel (hydroxypropylcellulose) (HPC)

Measured: T/C

OC12CCCCC13CCC1CCCCC1(O2)O3 (stereo not drawn)
inactive: [1] 98 % of control | [2] 94 % of control | [3] 102 % of control

Cc1ccc(NC(=O)Oc2ccc(C(C)(C)C)cc2)cc1NC(=O)Oc1ccc(C(C)(C)C)cc1
inactive: [4] 97 % of control | [5] 105 % of control | [6] 100 % of control

CCCCCCCCCC(F)CCCCCCCC(=O)O (stereo not drawn) (tested in a mixture with another compound)
inactive: [7] 91 % of control | dose: 200.0 mg/kg/injection, schedule: Q01DX001 (ip), vehicle: saline 91 % of control | [8] 95 % of control

C1CCCC(NNC2CCCCCCC2)CCC1
inactive: [7] 94 % of control

FC(F)(F)c1cccc(C(OCCN2CCCC2)c2ccccc2)c1 (stereo not drawn)
inactive: dose: 6.25 mg/kg/injection, schedule: Q01DX009 (ip), vehicle: saline 92 % of control | dose: 12.5 mg/kg/injection, schedule: Q01DX009 (ip), vehicle: saline 95 % of control | dose: 25.0 mg/kg/injection, schedule: Q01DX009 (ip), vehicle: saline 110 % of control

NOCc1ccc(OCc2ccccc2)cc1
inactive: dose: 100.0 mg/kg/injection, schedule: Q04DX003 (ip), vehicle: acetone 102 % of control | dose: 200.0 mg/kg/injection, schedule: Q04DX003 (ip), vehicle: acetone 95 % of control

Cn1nc(N)c2cc(C#N)c(N)nc21
inactive: [4] 90 % of control | [5] 90 % of control | [6] 95 % of control

CCCCCCCCCCCCCCCCCCNC(=S)Nc1ccc(S(=O)(=O)c2ccc(NC(=S)NCCCCCCCCCCCCCCCCCC)cc2)cc1
inactive: dose: 50.0 mg/kg/injection, schedule: Q01DX001 (ip), vehicle: saline 98 % of control | [7] 87 % of control | [8] 106 % of control

CN(C)c1ccc(CN2CCCN(Cc3ccc(N(C)C)cc3)C2c2ccccc2O)cc1
inactive: [1] 100 % of control | [9] 97 % of control | [2] 107 % of control | dose: 200.0 mg/kg/injection, schedule: Q04DX003 (ip), vehicle: Klucel (hydroxypropylcellulose) (HPC) 100 % of control | [3] 106 % of control | [10] 97 % of control

COc1ccc(OC)c2cc3ccccc3cc12
inactive: dose: 100.0 mg/kg/injection, schedule: Q01DX001 (ip), vehicle: carboxymethylcellulose (CMC) 106 % of control | dose: 200.0 mg/kg/injection, schedule: Q01DX001 (ip), vehicle: carboxymethylcellulose (CMC) 104 % of control | dose: 400.0 mg/kg/injection, schedule: Q01DX001 (ip), vehicle: carboxymethylcellulose (CMC) 93 % of control

CC[N+](CC)(CC)CC(=O)c1ccc(Br)cc1
inactive: dose: 25.0 mg/kg/injection, schedule: Q04DX002 (ip), vehicle: saline with Tween-80 97 % of control | dose: 50.0 mg/kg/injection, schedule: Q04DX002 (ip), vehicle: saline with Tween-80 97 % of control | dose: 100.0 mg/kg/injection, schedule: Q04DX002 (ip), vehicle: saline with Tween-80 87 % of control and 92 % of control

O=C(C=C(C(F)(F)F)C(F)(F)F)c1ccco1
inactive: dose: 12.5 mg/kg/injection, schedule: Q01DX009 (ip), vehicle: saline with Tween-80 100 % of control | dose: 25.0 mg/kg/injection, schedule: Q01DX009 (ip), vehicle: saline with Tween-80 104 % of control

Cc1c(Cl)cccc1N1C(=O)CC(Sc2ccccc2N)C1=O (stereo not drawn)
inactive: [4] 95 % of control | [1] 106 % of control | [9] 92 % of control | dose: 100.0 mg/kg/injection, schedule: Q04DX003 (ip), vehicle: saline with Tween-80 94 % of control | [5] 92 % of control | [2] 107 % of control | dose: 200.0 mg/kg/injection, schedule: Q04DX003 (ip), vehicle: saline with Tween-80 88 % of control | [3] 109 % of control | [10] 89 % of control | dose: 400.0 mg/kg/injection, schedule: Q04DX003 (ip), vehicle: saline with Tween-80 93 % of control

Cn1nc(C(N)=O)c(C#N)c1N
inactive: dose: 50.0 mg/kg/injection, schedule: Q04DX002 (ip), vehicle: saline 103 % of control | dose: 100.0 mg/kg/injection, schedule: Q04DX002 (ip), vehicle: saline 92 % of control | dose: 200.0 mg/kg/injection, schedule: Q04DX002 (ip), vehicle: saline 95 % of control

CCOC(=O)c1[nH]c2ccccc2c1CN(CCCl)CCCl
inactive: dose: 2.5 mg/kg/injection, schedule: Q01DX Z (ip), vehicle: saline 107 % of control | dose: 5.0 mg/kg/injection, schedule: Q01DX Z (ip), vehicle: saline 108 % of control | dose: 10.0 mg/kg/injection, schedule: Q01DX Z (ip), vehicle: other 120 % of control | dose: 10.0 mg/kg/injection, schedule: Q01DX Z (ip), vehicle: saline 120 % of control | dose: 20.0 mg/kg/injection, schedule: Q01DX Z (ip), vehicle: other 122 % of control
